From patent US10344279B2, “Methods for the prevention and the treatment of extracapillary glomerulonephritis” (INSERM (Institut National de la Sante et de la Recherche …, priority 2014, dated 2019)
“Also recorded” adds a separate entry of the source.

B1: HB-EGF: heparin-binding epidermal growth factor-like growth factor, EGFR ligand (Preprotech) (protein, UniProt Q99075 63-148, looked up)
Heparin-binding EGF-like …: DLQEADLDLLRVTLSSKPQALATPNKEEHGKRKKKGKGLGKKRDPCLRKYKDFCIHGECKYVKELRAPSCICHPGYHGERCHGLSL

Assays:
phospho-STAT3 (Tyr705) [1] = assay: Western blot of phospho-STAT3 in primary culture of podocytes; assay type: cell-based, mouse; conditions: 16 hours; AG1478 1 μM, anti-mIL-6 antibody 10 μg/mL, HB-EGF 10 ng/mL
Protocol: After 4 days of primary culture, podocytes were trypsinized then plated into μ-Dish 35 mm high with Culture-Insert (Ibidi). Ibidi's wounding inserts were used for cell migration studies. The coverage of the 500-μm gap was assessed after 12 hours of culture and podocyte migration area was quantified using ImageJ software. The effects of HB-EGF (10 ng/mL, Preprotech) or AG1478 (1 μM, Calbiochem) or anti-mIL-6 monoclonal antibody MP5-20F3 (10 μg/mL, eBiosciences) or Stattic (2 μM, Calbiochem) on differentiated podocytes was applied during 16 hours. After stimulation, podocytes were scrapped in Phosphosafe buffer for protein extraction or in RLT buffer for total RNA extraction.
After extraction from glomeruli or podocytes with lysis buffer, proteins were quantified by BCA protein assay kit (iNtRON Biotechnology). Samples were resolved on 4-12% Bis-Tris Criterion XT gels (Bio-Rad) then transferred to a polyvinylidene difloride membrane. Membranes were incubated with the appropriate primary antibodies: rabbit anti-phospho-EGFR (Tyr1068) (Cell Signaling Technology), rabbit anti-phospho-STAT3 (Tyr705) (Cell Signaling Technology), goat anti-p57 (Santa Cruz Biotechnology). Protein loading was monitored by using the rat anti-tubulin antibody (Abeam). […] Densitometric analysis with ImageJ software was used for quantification.

phospho-STAT3 (Tyr705) [2] = assay: Western blot of phospho-STAT3 in glomeruli / kidney cortex of NTS-challenged mice; assay type: in vivo; conditions: erlotinib 10 mg/kg/day; NTS-challenged mice
Protocol: Podocyte-specific disruption of Stat3 mice were generated by crossing podocin-Cre positive mice (63) with Stat3 floxed mice (64) on C57BL6/J background. Their age-matched littermates with no deletion of Stat3 in any cells are considered as controls. […] Stattic (25 mg/kg) was administered in i.p. way every other day for 10 days. 10 weeks old 129S2/SvPasCr male mice were randomly treated with Stattic and were compared to vehicle-treated (DMSO) littermates.
The glomerulonephritis was induced on male mice (10-12 weeks of age) by intravenous injection of 15 μL of sheep anti-glomerular basement membrane (GBM) nephrotoxic serum (NTS), which was diluted with 85 μL of sterile phosphate buffer solution. Serum injections were repeated twice (on days 2 and 3) at 6 μL/g of body weight and 7 μL/g respectively.
Mouse kidneys were extracted, minced, and digested in 2 mg/mL collagenase I solution (Gibco) in RPMI 1640 (Invitrogen) at 37° C. for 3 minutes, then filtered through a 70-μm cell strainer and one more through a 40-μm cell strainer. […] Podocyte outgrowth area was quantified at day 4 using ImageJ software.
After extraction from glomeruli or podocytes with lysis buffer, proteins were quantified by BCA protein assay kit (iNtRON Biotechnology). […] Protein loading was monitored by using the rat anti-tubulin antibody (Abeam). […] Densitometric analysis with ImageJ software was used for quantification.

phospho-EGFR (Tyr1068) = assay: Western blot of phospho-EGFR in kidney cortex of NTS-challenged mice; assay type: in vivo; conditions: erlotinib 10 mg/kg/day
Protocol: After extraction from glomeruli or podocytes with lysis buffer, proteins were quantified by BCA protein assay kit (iNtRON Biotechnology). […] Membranes were incubated with the appropriate primary antibodies: rabbit anti-phospho-EGFR (Tyr1068) (Cell Signaling Technology), rabbit anti-phospho-STAT3 (Tyr705) (Cell Signaling Technology), goat anti-p57 (Santa Cruz Biotechnology). Protein loading was monitored by using the rat anti-tubulin antibody (Abeam). Secondary antibodies were donkey-anti rabbit HRP and donkey-anti rabbit HRP (GE Healthcare Life Sciences). […] Densitometric analysis with ImageJ software was used for quantification.

Molecule | STAT3 phosphorylation (Tyr705) in cultured primary podocytes (phospho-STAT3 (Tyr705) [1]) | STAT3 phosphorylation in podocytes (phospho-STAT3 (Tyr705) [2]) | EGFR phosphorylation in the kidney cortex (phospho-EGFR (Tyr1068))
COc1cc2ncnc(Nc3cccc(Cl)c3)c2cc1OC [AG1478] | blunted; also recorded: decreased | – | –
C#Cc1cccc(Nc2ncnc3cc(OCCOC)c(OCCOC)cc23)c1 [erlotinib] | – | blunted | efficiently blocked
B1 | enhanced | – | –
